# According to patent publication US10023570B2 (Array BioPharma, Inc., priority 2015, dated 2018):
# Counter-ions that a name gives are not always drawn.
# Target: human KDR protein in HEK-293 cells (Homo sapiens (Human), UniProt P35968)
# Experiment: KDR Cell Assay (phospho-KDR in HEK-293 cells expressing inducible KDR)
# Assay type: cell-based
# Conditions: pKDR Cell HEK 10% FBS IC50, HEK-293 cells expressing inducible KDR, VEGF stimulated
# Summary of the method: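 HEK-293 cells with inducible human KDR were treated with compound for 1 h in DMEM (0.25% DMSO final), then lysed. Phospho-KDR was quantified by Meso Scale immunoassay, expressed as percent of control, and IC50 taken where a 4-parameter logistic fit crossed 50 POC.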
# human KDR protein in HEK-293 cells, sequence (P35968 20-1356): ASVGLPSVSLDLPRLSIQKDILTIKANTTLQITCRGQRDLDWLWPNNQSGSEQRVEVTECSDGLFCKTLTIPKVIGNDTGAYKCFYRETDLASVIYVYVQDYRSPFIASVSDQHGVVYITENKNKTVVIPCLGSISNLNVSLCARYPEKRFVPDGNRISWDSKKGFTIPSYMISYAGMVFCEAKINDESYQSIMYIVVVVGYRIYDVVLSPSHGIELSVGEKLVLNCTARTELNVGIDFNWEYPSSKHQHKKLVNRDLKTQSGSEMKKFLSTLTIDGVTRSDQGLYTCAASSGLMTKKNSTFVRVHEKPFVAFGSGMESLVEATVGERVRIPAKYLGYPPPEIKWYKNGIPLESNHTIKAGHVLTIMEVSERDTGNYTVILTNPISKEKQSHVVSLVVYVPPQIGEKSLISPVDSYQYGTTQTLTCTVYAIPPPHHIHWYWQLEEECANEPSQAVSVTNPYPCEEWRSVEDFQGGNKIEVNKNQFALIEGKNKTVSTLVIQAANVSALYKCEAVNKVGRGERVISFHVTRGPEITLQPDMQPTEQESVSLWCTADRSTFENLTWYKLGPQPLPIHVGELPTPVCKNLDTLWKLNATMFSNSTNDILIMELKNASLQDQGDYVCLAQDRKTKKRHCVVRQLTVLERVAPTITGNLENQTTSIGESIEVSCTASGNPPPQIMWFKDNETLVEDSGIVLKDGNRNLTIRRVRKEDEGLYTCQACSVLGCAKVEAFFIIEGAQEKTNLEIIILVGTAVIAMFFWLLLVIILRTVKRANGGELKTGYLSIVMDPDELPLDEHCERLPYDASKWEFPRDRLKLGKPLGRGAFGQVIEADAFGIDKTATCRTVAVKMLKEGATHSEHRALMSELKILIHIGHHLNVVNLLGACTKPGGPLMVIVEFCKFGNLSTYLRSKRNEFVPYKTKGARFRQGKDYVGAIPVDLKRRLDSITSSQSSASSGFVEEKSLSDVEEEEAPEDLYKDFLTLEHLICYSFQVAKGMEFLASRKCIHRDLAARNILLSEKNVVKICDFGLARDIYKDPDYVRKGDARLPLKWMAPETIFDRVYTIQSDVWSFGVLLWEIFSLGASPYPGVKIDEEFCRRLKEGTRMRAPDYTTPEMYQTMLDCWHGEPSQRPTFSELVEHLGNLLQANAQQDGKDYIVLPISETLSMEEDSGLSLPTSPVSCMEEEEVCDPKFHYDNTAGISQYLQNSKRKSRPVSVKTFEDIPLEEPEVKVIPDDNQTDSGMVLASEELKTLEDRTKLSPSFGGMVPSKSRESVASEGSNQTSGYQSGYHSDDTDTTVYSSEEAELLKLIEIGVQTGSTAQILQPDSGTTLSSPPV
row,Structure (SMILES),IC50
1,"Cn1cc(-c2cc(-c3ccc(N4CCC(Nc5ccccc5)CC4)nc3)c3c(C#N)cnn3c2)cn1 [Example 507, 6-(1-methyl-1H-pyrazol-4-yl)-4-(6-(4-(phenylamino)piperidin-1-yl)pyridin-3-yl)pyrazolo[1,5-a]pyridine-3-carbonitrile]",0.0249 µM
2,"Cn1cc(-c2cc(-c3ccc(N4CCC5(CCNCC5)CC4)nc3)c3c(C#N)cnn3c2)cn1 [Example 539, 4-(6-(3,9-diazaspiro[5.5]undecan-3-yl)pyridin-3-yl)-6-(1-methyl-1H-pyrazol-4-yl)pyrazolo[1,5-a]pyridine-3-carbonitrile dihydrochloride]",1.64 µM
3,"Cn1cc(-c2cc(-c3ccc(N4CCN(Cc5cc(F)cc(F)c5)CC4)nc3)c3c(C#N)cnn3c2)cn1 [Example 447, 4-(6-(4-(3,5-difluorobenzyl)piperazin-1-yl)pyridin-3-yl)-6-(1-methyl-1H-pyrazol-4-yl)pyrazolo[1,5-a]pyridine-3-carbonitrile]",0.668 µM
4,"N#Cc1cnn2cc(-c3cnn(C4CNC4)c3)cc(-c3ccc(N4CCN(Cc5ccccc5)CC4)nc3)c12 [Example 595, 6-(1-(azetidin-3-yl)-1H-pyrazol-4-yl)-4-(6-(4-benzylpiperazin-1-yl)pyridin-3-yl)pyrazolo[1,5-a]pyridine-3-carbonitrile dihydrochloride]",0.217 µM

# Same assay, conditions: pKDR Cell HEK 10% FBS IC50, HEK-293 cells expressing inducible KDR, VEGF stimulated, 10% FBS
row,Structure (SMILES),IC50
1,"Cn1cc(-c2cc(-c3ccc(N4CC[C@@H](C(=O)N5CCCC5)C4)nc3)c3c(C#N)cnn3c2)cn1 [Example 260, (R)-6-(1-methyl-1H-pyrazol-4-yl)-4-(6-(3-(pyrrolidine-1-carbonyl)pyrrolidin-1-yl)pyridin-3-yl)pyrazolo[1,5-a]pyridine-3-carbonitrile]",≥ 5 µM
2,"Cn1cc(-c2cc(-c3ccc(N4CCN(C(=O)C(c5ccccc5)N5CCCCC5)CC4)nc3)c3c(C#N)cnn3c2)cn1 (centres unmarked) [Example 368, 6-(1-methyl-1H-pyrazol-4-yl)-4-(6-(4-(2-phenyl-2-(piperidin-1-yl)acetyl)piperazin-1-yl)pyridin-3-yl)pyrazolo[1,5-a]pyridine-3-carbonitrile bis(2,2,2-trifluoroacetate)]",1.85 µM
3,"CC(C)C(C(=O)N1CCN(c2ccc(-c3cc(-c4cnn(C)c4)cn4ncc(C#N)c34)cn2)CC1)c1ccccc1 (centres unmarked) [Example 29, 6-(1-methyl-1H-pyrazol-4-yl)-4-(6-(4-(3-methyl-2-phenylbutanoyl)piperazin-1-yl)pyridin-3-yl)pyrazolo[1,5-a]pyridine-3-carbonitrile]",0.607 µM
4,"Cn1cc(-c2cc(-c3ccc(N4CCN(C(=O)CC(C)(C)O)C5(CC5)C4)nc3)c3c(C#N)cnn3c2)cn1 [Example 168, 4-(6-(4-(3-hydroxy-3-methylbutanoyl)-4,7-diazaspiro[2.5]octan-7-yl)pyridin-3-yl)-6-(1-methyl-1H-pyrazol-4-yl)pyrazolo[1,5-a]pyridine-3-carbonitrile]",1.09 µM
5,"Cn1cc(-c2cc(-c3ccc(N4CCN(C(=O)c5ccccn5)CC4)nc3)c3c(C#N)cnn3c2)cn1 [Example 72, 6-(1-methyl-1H-pyrazol-4-yl)-4-(6-(4-picolinoylpiperazin-1-yl)pyridin-3-yl)pyrazolo[1,5-a]pyridine-3-carbonitrile]",0.0999 µM
6,"Cn1cc(-c2cc(-c3ccc(N4CCC(N5CCOC5=O)CC4)nc3)c3c(C#N)cnn3c2)cn1 [Example 191, 6-(1-methyl-1H-pyrazol-4-yl)-4-(6-(4-(2-oxooxazolidin-3-yl)piperidin-1-yl)pyridin-3-yl)pyrazolo[1,5-a]pyridine-3-carbonitrile]",0.0218 µM
7,"Cn1cc(-c2cc(-c3ccc(N4CCN(C(=O)C5CCOCC5)CC4)nc3)c3c(C#N)cnn3c2)cn1 [Example 74, 6-(1-methyl-1H-pyrazol-4-yl)-4-(6-(4-(tetrahydro-2H-pyran-4-carbonyl)piperazin-1-yl)pyridin-3-yl)pyrazolo[1,5-a]pyridine-3-carbonitrile]",1.35 µM
